Key:
[1] = Superoxide anion chemiluminescent assay (hypoxanthine/xanthine oxidase); assay type: biochemical; conditions: mean of 6 independent assays
Source text: (§1) The superoxide anion has been measured by a chemiluminescent assay based on the hypoxanthine (HPX)/xanthine oxidase (XOD) reaction using the Lumimax Superoxide Anion Detection Kit (Stratagene, La Jolla, Calif., USA) and following the manufacturer's instructions. Hydroxyl radical scavenger activity has been measured by means of the Fenton reaction for the production of hydroxyl radicals and chemiluminescent dosage (using a Victor^3 chemiluminometer, Wallac, Finland) with luminol. Peroxynitrite ions have been determined by means of dosage with a spontaneous generator of peroxynitrites (3-morpholinosidnonimine hydrochloride; SIN-1) and a stable reagent for the nitroxyl ions (2-(4-carboxyphenyl)-4,4,5,5-tetramethylimidazoline-1-oxyl-3-oxide potassium salt PTIO spin trap) then dosed by means of electron spin resonance (ESR) using a. Nippon Denshi JES-FR30.
(§2) Extract 1 and Extract 2 listed in Table are derived from Syringa vulgaris cell cultures. […] The results are expressed as the concentration inhibiting 50% of activity (IC50). The values reported are the means of 6 independent assays.

[2] = Peroxynitrite assay (SIN-1, PTIO spin trap, ESR); assay type: biochemical; conditions: mean of 6 independent assays
Source text: as §1, §2

[3] = Hydroxyl radical scavenger activity (Fenton reaction, luminol chemiluminescence); assay type: biochemical; conditions: mean of 6 independent assays
Source text: as §1, with “Syringa vulgaris Extracts 1 and 2, prepared as described in examples 1 and 2, have been used to assess in vitro antioxidant action with specific oxygen radical generating systems such as the superoxide anion (O2^−), the hydroxyl radical (HO), the peroxynitrite radical (ONOO^−) and the inhibition of lipid peroxidation. The” for “The”, “JES-FR30. […].” for “JES-FR30.”
Extract 1 and Extract 2 listed in Table are derived from Syringa vulgaris cell cultures. In said extracts, verbascoside is present at 0.82% and 35% by weight respectively. […]

A549 cells = assay: Oxidative stress (ROS, DCF fluorescence) in A549 cell cultures; assay type: cell-based, human; conditions: 1 mM, A549, galactose oxidative stress
Experimental: 10×10^5 A549 cells (ATCC-CCL195) have been seeded into wells with 3 ml of DMEM/medium (HAM'S F12K) with 10% FCS and incubated at 37° C. in a 5% CO2, water vapour saturated atmosphere. After 24 hours the culture medium is replaced by medium supplemented with 5.55 mM galactose, which is left in contact with the cells for 20 hours. The medium is once again replaced with medium containing galactose in the presence or absence of the test compound. After 5 hours, quantitative measurement of the ROSs is performed by washing the cells with phosphate buffer and then incubating them with 30 μM DCF-DA in buffer solution. At the end of a 15 minute incubation, excess DCF-DA is removed from the cells by washing, prior to measuring the fluorescence emitted.
Antioxidant activity measurements are performed using a (Hitachi F3010) spectrophotometer with excitation at 488 nm and measuring emission at 525 nm, and values are expressed in pmoles, by extrapolation from the calibration curve constructed using known quantities of DCF, in relation to total cellular protein. Values are thus expressed in % ages with respect to the ROS, content of the cells not subjected to oxidative stress, to which are assigned a value of 100.
Syringa vulgaris Extracts 1 and 2 and ascorbic acid have been dissolved in phosphate buffer.

tyrosinase [4] = assay: Tyrosinase inhibition, oxidation of L-tyrosine to L-DOPA; assay type: biochemical; conditions: 250 μg/ml
Source text: (§3) The enzyme tyrosinase catalyses the reactions leading to melanin biosynthesis from tyrosine. […] Substances inhibiting tyrosinase activity produce clearing/bleaching effect on the skin, since they block melanin synthesis. The method used to determine the inhibition of tyrosinase activity in the oxidation reaction of L-tyrosine to L-DOPA is that described in Kim et al. […] Biol. Pharm. Bull. 28(2), 323-327, 2005). The method applied for determination of the inhibition of tyrosinase activity in the conversion of L-DOPA to DOPAquinone is that described in Masamoto et al. (Mushroom tyrosinase inhibitory activity of esculetin isolated from seeds of Euphorbia lathyris L. Biosci. Biotechnol. Biochem., 67(3), 631-634, 2003).

tyrosinase [5] = assay: Tyrosinase inhibition, conversion of L-DOPA to DOPAquinone; assay type: biochemical, Mushroom; conditions: 100 μg/ml
Source text: as §3

SMILES | Test L-tyrosine-DOPA inhibitory activity (%) (tyrosinase [4]) | Test LDOPA-DOPAquinone inhibitory activity (%) (tyrosinase [5]) | other results
O=C1c2c(O)cccc2C([C@@H]2O[C@H](CO)[C@@H](O)[C@H](O)[C@H]2O)c2cc(CO)cc(O)c21 (some centres unmarked) [Aloin, reference compound] |  |  | Superoxide radical (IC50) [1]: 7.6 µg/mL; Peroxynitrite radical (IC50) [2]: 12.3 µg/mL; Hydroxyl radial (IC50) [3]: 2.9 µg/mL
O=C1O[C@H]([C@@H](O)CO)C(O)=C1O [Ascorbic acid, reference compound] |  |  | ROS level (%) (A549 cells): 62.91 ± 3.82 %
O=c1cc(CO)occ1O [Kojic acid, reference compound] | 94.1 | 35 | 
Oc1cccc(O)c1 [Resorcinol, reference compound] | 56.9 | 0 | 

— patent US10456434B2, “Extracts obtained from cell line cultures from plants belonging to the Oleaceae family (e.g. Syringa vulgaris), their preparation and use” (CRODA ITALIANA S. P. A., priority 2005, dated 2019)
